Measured values as given in publication PMC9157728, “Albumin Binder–Conjugated Fibroblast Activation Protein Inhibitor Radiopharmaceuticals for Cancer Therapy” (Journal of Nuclear Medicine, 2022).

Legend:
[1] = Stability in vitro in saline and human serum (radio-HPLC); assay type: in vitro ADME; conditions: 7 d
Procedure: The radiolabeling of ^68Ga, ^86Y, and ^177Lu was performed by incubation with 50 nmol of precursor at pH 4.5–5.0 at 90°C for 10 min. The product was purified by C18 column extraction, and the radiochemical purity was determined by high-performance liquid chromatography equipped with a radioactivity detector. The stability of ^177Lu-TEFAPI-06 and ^177Lu-TEFAPI-07 in saline and human serum was monitored from 2 to 168 h using radio–high-performance liquid chromatography ([13]). More details about the radiochemistry, the quality control testing, and the stability assay can be found in the supplemental materials (section 3).

[2] = test system: pancreatic cancer PDX tumors; test: SPECT imaging in pancreatic cancer PDX-bearing mice; assay type: in vivo; conditions: for tumor uptake at 6 d after injection (SPECT imaging and biodistribution): 6 d after the injection; for tumor-to-nontargeted-tissue signal ratios on SPECT: PDX tumor models, until 144 h after injection
Procedure: SPECT scans were performed on a Mediso nanoSPECT/CT imaging system. ^177Lu-TEFAPI-06 or ^177Lu-TEFAPI-07 SPECT imaging was performed on pancreatic cancer PDX–bearing mice at the indicated time points after intravenous injection of 37 MBq of ^177Lu-TEFAPI-06 or ^177Lu-TEFAPI-07, respectively.

[3] = Ex vivo biodistribution study in PDX-bearing mice
Procedure: PDX-bearing mice were injected with 925.0 kBq of ^177Lu-TEFAPI-06 or ^177Lu-TEFAPI-07 for an ex vivo biodistribution study. The mice were killed at 24 h and 96 h after injection, the counts of the different organs were measured with a γ-counter, and the data were normalized to percentage injected dose (%ID)/g using 1% of total counts.

[4] = test system: pancreatic cancer PDX tumors; test: Radiotherapy study in pancreatic cancer PDX-bearing mice (tumor growth); assay type: in vivo; conditions: 1.85 MBq or 3.7 MBq, vs saline or 3.7 MBq ^177Lu-FAPI-04
Procedure: (§1) ^68Ga-FAPI-04 PET imaging was performed to evaluate the tumor volume, and the mice were treated when their average tumor volume reached 35 mm^3. The PDX-bearing mice (6 groups, 7–9 mice per group) were treated by saline, 3.7 MBq of ^177Lu-FAPI-04, 1.85 MBq of ^177Lu-TEFAPI-06, 3.7 MBq of ^177Lu-TEFAPI-06, 1.85 MBq of ^177Lu-TEFAPI-07, or […] of ^177Lu-TEFAPI-07. Tumor volume and body weight were monitored every 2 or 3 d, and the animals were euthanized when the tumor volume exceeded 1,000 mm^3. Histopathologic staining was performed with an antihuman FAP monoclonal antibody (ab207178; Abcam), and hematoxylin and eosin staining was performed as previously described ([29]).

[5] = Radiotherapy study: body weight and hematoxylin and eosin staining of main organs; assay type: in vivo; conditions: pancreatic cancer PDX-bearing mice after treatment
Procedure: as §1

Row | Structure (SMILES) | radiochemistry purity after incubation in human serum [1] | radiochemistry purity after incubation in saline [1] | tumor uptake at 6 d after injection (SPECT imaging and biodistribution) [2] | tumor-to-nontargeted-tissue signal ratios on SPECT [2] | Blood uptake ([3]; 24 h after injection) | Bone uptake ([3]; 24 h after injection) | Brain uptake ([3]; 24 h after injection) | Fat uptake ([3]; 24 h after injection) | Heart uptake ([3]; 24 h after injection) | Kidney uptake ([3]; 24 h after injection) | Large intestine uptake ([3]; 24 h after injection) | Liver uptake ([3]; 24 h after injection) | Lung uptake ([3]; 24 h after injection) | Muscle uptake ([3]; 24 h after injection) | Pancreas uptake ([3]; 24 h after injection) | Small intestine uptake ([3]; 24 h after injection) | Spleen uptake ([3]; 24 h after injection) | Stomach uptake ([3]; 24 h after injection) | Tumor uptake ([3]; 24 h after injection) | tumor-to-liver ratio ([3]; 24 h after injection) | also measured
1 | N#C[C@@H]1CC(F)(F)CN1C(=O)CNC(=O)c1ccnc2ccc(OCCCN3CCN(C(=O)[C@H](CCCCNC(=O)CN4CCN(CC(=O)[O-])CCN(CC(=O)[O-])CCN(CC(=O)[O-])CC4)NC(=O)CCCC(=O)N[C@@H](CCCCNC(=O)CCCc4ccc(I)cc4)C(=O)O)CC3)cc12.[177Lu+3] [^177Lu-TEFAPI-06] | over 90% | over 90% | still notable | high | 12.32 %ID/g | 1.32 %ID/g | 0.37 %ID/g | 1.86 %ID/g | 3.70 %ID/g | 3.20 %ID/g | 1.66 %ID/g | 2.98 %ID/g | 4.33 %ID/g | 1.09 %ID/g | 2.01 %ID/g | 2.55 %ID/g | 3.00 %ID/g | 1.75 %ID/g | 8.68 %ID/g | 2.91 | Blood uptake ([3]; 96 h after injection): 2.25 %ID/g; Bone uptake ([3]; 96 h after injection): 0.35 %ID/g; Brain uptake ([3]; 96 h after injection): 0.09 %ID/g; Fat uptake ([3]; 96 h after injection): 1.55 %ID/g; Heart uptake ([3]; 96 h after injection): 1.51 %ID/g; Kidney uptake ([3]; 96 h after injection): 2.66 %ID/g; Large intestine uptake ([3]; 96 h after injection): 0.53 %ID/g; Liver uptake ([3]; 96 h after injection): 1.74 %ID/g; Lung uptake ([3]; 96 h after injection): 1.95 %ID/g; Muscle uptake ([3]; 96 h after injection): 0.45 %ID/g; Pancreas uptake ([3]; 96 h after injection): 0.75 %ID/g; Small intestine uptake ([3]; 96 h after injection): 0.61 %ID/g; Spleen uptake ([3]; 96 h after injection): 3.66 %ID/g; Stomach uptake ([3]; 96 h after injection): 0.54 %ID/g; Tumor uptake ([3]; 96 h after injection): 7.33 %ID/g; tumor-to-liver ratio ([3]; 96 h after injection): 4.21; tumor growth after treatment [4]: remarkable suppression of tumor growth; side effects, hematoxylin and eosin staining of the main organs [5]: almost negligible
2 | Cc1cc(-c2ccc(NC(=O)CCCC(=O)N[C@@H](CCCCNC(=O)CN3CCN(CC(=O)[O-])CCN(CC(=O)[O-])CCN(CC(=O)[O-])CC3)C(=O)N3CCN(CCCOc4ccc5nccc(C(=O)NCC(=O)N6CC(F)(F)C[C@H]6C#N)c5c4)CC3)c(C)c2)ccc1N=Nc1ccc2c(S(=O)(=O)O)cc(S(=O)(=O)O)c(N)c2c1O.[177Lu+3] [^177Lu-TEFAPI-07] | over 90% | over 90% | still notable | high | 5.64 %ID/g | 1.71 %ID/g | 0.23 %ID/g | 1.82 %ID/g | 2.53 %ID/g | 8.67 %ID/g | 1.15 %ID/g | 3.21 %ID/g | 2.58 %ID/g | 1.00 %ID/g | 2.16 %ID/g | 1.19 %ID/g | 2.69 %ID/g | 1.20 %ID/g | 7.87 %ID/g | 2.45 | Blood uptake ([3]; 96 h after injection): 0.51 %ID/g; Bone uptake ([3]; 96 h after injection): 0.18 %ID/g; Fat uptake ([3]; 96 h after injection): 0.48 %ID/g; Heart uptake ([3]; 96 h after injection): 0.62 %ID/g; Kidney uptake ([3]; 96 h after injection): 10.16 %ID/g; Large intestine uptake ([3]; 96 h after injection): 0.10 %ID/g; Liver uptake ([3]; 96 h after injection): 2.31 %ID/g; Lung uptake ([3]; 96 h after injection): 0.73 %ID/g; Muscle uptake ([3]; 96 h after injection): 0.28 %ID/g; Pancreas uptake ([3]; 96 h after injection): 0.53 %ID/g; Small intestine uptake ([3]; 96 h after injection): 0.16 %ID/g; Spleen uptake ([3]; 96 h after injection): 1.88 %ID/g; Stomach uptake ([3]; 96 h after injection): 0.29 %ID/g; Tumor uptake ([3]; 96 h after injection): 7.57 %ID/g; tumor-to-liver ratio ([3]; 96 h after injection): 3.28; tumor growth after treatment [4]: remarkable suppression of tumor growth; side effects, hematoxylin and eosin staining of the main organs [5]: almost negligible
